Key:
[1] = biological target: Serine/threonine-protein kinase Nek5 (Homo sapiens) (UniProt Q6P3R8); details: Compound concentration 1000.0 nM
[2] = biological target: Mitotic checkpoint serine/threonine-protein kinase BUB1 (Homo sapiens) (UniProt O43683); details: Compound concentration 1000.0 nM
[3] = biological target: Serine/threonine-protein kinase B-raf (Homo sapiens) (UniProt P15056); details: Compound concentration 1000.0 nM
[4] = system: Receptor-type tyrosine-protein kinase FLT3 (Homo sapiens), P36888 [K663Q]; details: Compound concentration 1000.0 nM
[5] = biological target: STE20/SPS1-related proline-alanine-rich protein kinase (Homo sapiens) (UniProt Q9UEW8); details: Compound concentration 1000.0 nM
[6] = biological target: Serine/threonine-protein kinase Nek9 (Homo sapiens) (UniProt Q8TD19); details: Compound concentration 1000.0 nM
[7] = biological target: Casein kinase I isoform gamma-2 (Homo sapiens) (UniProt P78368); details: Compound concentration 1000.0 nM
[8] = biological target: Membrane-associated tyrosine- and threonine-specific cdc2-inhibitory kinase (Homo sapiens) (UniProt Q99640); details: Compound concentration 1000.0 nM
[9] = biological target: BDNF/NT-3 growth factors receptor (Homo sapiens) (UniProt Q16620); details: Compound concentration 1000.0 nM
[10] = biological target: Serine/threonine-protein kinase N2 (Homo sapiens) (UniProt Q16513); details: Compound concentration 1000.0 nM
[11] = biological target: Tyrosine-protein kinase Srms (Homo sapiens) (UniProt Q9H3Y6); details: Compound concentration 1000.0 nM
[12] = biological target: Vascular endothelial growth factor receptor 1 (Homo sapiens) (UniProt P17948); details: Compound concentration 1000.0 nM
[13] = biological target: Beta-3 adrenergic receptor (Homo sapiens) (UniProt P13945); details: Compound concentration 10.0 uM
[14] = system: Tyrosine-protein kinase ABL1 (Homo sapiens), P00519 [F317I]; details: Compound concentration 1000.0 nM
[15] = biological target: Cyclin-dependent kinase 4 (Homo sapiens) (UniProt P11802); details: Compound concentration 1000.0 nM
Cyclin-dependent kinase 4 (Homo sapiens), sequence (P11802 whole entry): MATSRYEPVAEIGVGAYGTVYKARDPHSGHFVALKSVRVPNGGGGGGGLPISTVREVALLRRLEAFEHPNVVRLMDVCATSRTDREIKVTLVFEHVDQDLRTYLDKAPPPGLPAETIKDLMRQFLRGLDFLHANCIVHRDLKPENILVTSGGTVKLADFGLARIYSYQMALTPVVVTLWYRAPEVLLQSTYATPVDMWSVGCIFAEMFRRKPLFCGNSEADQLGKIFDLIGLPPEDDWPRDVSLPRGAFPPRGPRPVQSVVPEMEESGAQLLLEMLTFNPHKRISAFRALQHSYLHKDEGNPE

[16] = biological target: Ribosomal protein S6 kinase alpha-3 (Homo sapiens) (UniProt P51812); details: Compound concentration 1000.0 nM
[17] = biological target: Mitogen-activated protein kinase kinase kinase 13 (Homo sapiens) (UniProt O43283); details: Compound concentration 1000.0 nM
[18] = biological target: Tyrosine-protein kinase JAK1 (Homo sapiens) (UniProt P23458); details: Compound concentration 1000.0 nM
[19] = biological target: Ephrin type-B receptor 1 (Homo sapiens) (UniProt P54762); details: Compound concentration 1000.0 nM
[20] = biological target: Histamine H2 receptor (Homo sapiens) (UniProt P25021); details: Compound concentration 10.0 uM
Histamine H2 receptor (Homo sapiens), sequence (P25021 whole entry): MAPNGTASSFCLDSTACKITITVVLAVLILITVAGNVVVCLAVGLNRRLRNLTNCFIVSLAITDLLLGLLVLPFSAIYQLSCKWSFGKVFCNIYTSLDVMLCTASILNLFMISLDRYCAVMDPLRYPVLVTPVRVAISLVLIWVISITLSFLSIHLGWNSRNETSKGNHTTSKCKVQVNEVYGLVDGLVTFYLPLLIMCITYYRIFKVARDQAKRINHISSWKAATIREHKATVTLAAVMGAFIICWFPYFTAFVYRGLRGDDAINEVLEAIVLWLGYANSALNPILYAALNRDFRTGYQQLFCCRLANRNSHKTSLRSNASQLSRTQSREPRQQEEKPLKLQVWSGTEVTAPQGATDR

[21] = biological target: Calcium/calmodulin-dependent protein kinase kinase 2 (Homo sapiens) (UniProt Q96RR4); details: Compound concentration 1000.0 nM
[22] = biological target: Mitogen-activated protein kinase kinase kinase 4 (Homo sapiens) (UniProt Q9Y6R4); details: Compound concentration 1000.0 nM
[23] = biological target: Peripheral plasma membrane protein CASK (Homo sapiens) (UniProt O14936); details: Compound concentration 1000.0 nM
[24] = biological target: Serine/threonine-protein kinase MRCK beta (Homo sapiens) (UniProt Q9Y5S2); details: Compound concentration 1000.0 nM
[25] = biological target: Tyrosine-protein kinase Fer (Homo sapiens) (UniProt P16591); details: Compound concentration 1000.0 nM
[26] = biological target: Vascular endothelial growth factor receptor 2 (Homo sapiens) (UniProt P35968); details: Compound concentration 1000.0 nM
[27] = biological target: Serine/threonine-protein kinase Sgk2 (Homo sapiens) (UniProt Q9HBY8); details: Compound concentration 1000.0 nM
[28] = biological target: Insulin receptor (Homo sapiens) (UniProt P06213); details: Compound concentration 1000.0 nM
[29] = biological target: Mitogen-activated protein kinase kinase kinase 12 (Homo sapiens) (UniProt Q12852); details: Compound concentration 1000.0 nM
[30] = biological target: Dual specificity mitogen-activated protein kinase kinase 3 (Homo sapiens) (UniProt P46734); details: Compound concentration 1000.0 nM
Dual specificity mitogen-activated protein kinase kinase 3 (Homo sapiens), sequence (P46734 whole entry): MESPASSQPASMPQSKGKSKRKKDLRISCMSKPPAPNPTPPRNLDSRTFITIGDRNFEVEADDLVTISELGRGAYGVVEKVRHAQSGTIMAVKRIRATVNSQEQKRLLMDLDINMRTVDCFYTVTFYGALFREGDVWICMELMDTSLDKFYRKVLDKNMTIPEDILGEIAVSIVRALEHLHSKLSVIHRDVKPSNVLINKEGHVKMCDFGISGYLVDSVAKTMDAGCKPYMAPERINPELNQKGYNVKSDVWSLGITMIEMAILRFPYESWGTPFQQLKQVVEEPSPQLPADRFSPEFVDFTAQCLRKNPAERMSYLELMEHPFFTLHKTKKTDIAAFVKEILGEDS

[31] = system: Tyrosine-protein kinase ABL1 (Homo sapiens), P00519 [M351T]; details: Compound concentration 1000.0 nM
[32] = biological target: Mitogen-activated protein kinase 7 (Homo sapiens) (UniProt Q13164); details: Compound concentration 1000.0 nM
[33] = biological target: Tyrosine-protein kinase Fyn (Homo sapiens) (UniProt P06241); details: Compound concentration 1000.0 nM
Tyrosine-protein kinase Fyn (Homo sapiens), sequence (P06241 2-537 limits assumed): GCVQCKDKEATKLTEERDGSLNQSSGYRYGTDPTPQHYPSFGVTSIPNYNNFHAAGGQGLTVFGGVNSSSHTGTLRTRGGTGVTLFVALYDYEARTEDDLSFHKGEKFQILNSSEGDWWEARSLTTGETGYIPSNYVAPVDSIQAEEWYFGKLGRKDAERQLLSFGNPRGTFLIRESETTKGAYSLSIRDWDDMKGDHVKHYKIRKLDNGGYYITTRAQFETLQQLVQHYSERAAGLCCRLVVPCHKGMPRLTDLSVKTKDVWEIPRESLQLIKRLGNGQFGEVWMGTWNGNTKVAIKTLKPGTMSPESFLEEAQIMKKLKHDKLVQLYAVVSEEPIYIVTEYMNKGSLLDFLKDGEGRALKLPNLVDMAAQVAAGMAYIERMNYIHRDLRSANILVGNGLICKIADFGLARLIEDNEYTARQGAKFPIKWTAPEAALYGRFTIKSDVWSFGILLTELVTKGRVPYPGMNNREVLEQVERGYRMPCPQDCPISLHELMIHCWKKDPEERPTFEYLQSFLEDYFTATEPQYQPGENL

[34] = biological target: Cyclin-dependent kinase 15 (Homo sapiens) (UniProt Q96Q40); details: Compound concentration 1000.0 nM
[35] = biological target: Mitogen-activated protein kinase 4 (Homo sapiens) (UniProt P31152); details: Compound concentration 1000.0 nM
[36] = biological target: G protein-coupled receptor kinase 4 (Homo sapiens) (UniProt P32298); details: Compound concentration 1000.0 nM
[37] = biological target: Serine/threonine-protein kinase MRCK gamma (Homo sapiens) (UniProt Q6DT37); details: Compound concentration 1000.0 nM
[38] = system: Phosphatidylinositol 4,5-bisphosphate 3-kinase catalytic subunit alpha isoform (Homo sapiens), P42336 [C420R]; details: Compound concentration 1000.0 nM
[39] = biological target: Tyrosine-protein kinase receptor TYRO3 (Homo sapiens) (UniProt Q06418); details: Compound concentration 1000.0 nM
[40] = system: Mast/stem cell growth factor receptor Kit (Homo sapiens), P10721 [L576P]; details: Compound concentration 1000.0 nM
Mast/stem cell growth factor receptor Kit (Homo sapiens), P10721 [L576P], sequence (P10721 whole entry L576P): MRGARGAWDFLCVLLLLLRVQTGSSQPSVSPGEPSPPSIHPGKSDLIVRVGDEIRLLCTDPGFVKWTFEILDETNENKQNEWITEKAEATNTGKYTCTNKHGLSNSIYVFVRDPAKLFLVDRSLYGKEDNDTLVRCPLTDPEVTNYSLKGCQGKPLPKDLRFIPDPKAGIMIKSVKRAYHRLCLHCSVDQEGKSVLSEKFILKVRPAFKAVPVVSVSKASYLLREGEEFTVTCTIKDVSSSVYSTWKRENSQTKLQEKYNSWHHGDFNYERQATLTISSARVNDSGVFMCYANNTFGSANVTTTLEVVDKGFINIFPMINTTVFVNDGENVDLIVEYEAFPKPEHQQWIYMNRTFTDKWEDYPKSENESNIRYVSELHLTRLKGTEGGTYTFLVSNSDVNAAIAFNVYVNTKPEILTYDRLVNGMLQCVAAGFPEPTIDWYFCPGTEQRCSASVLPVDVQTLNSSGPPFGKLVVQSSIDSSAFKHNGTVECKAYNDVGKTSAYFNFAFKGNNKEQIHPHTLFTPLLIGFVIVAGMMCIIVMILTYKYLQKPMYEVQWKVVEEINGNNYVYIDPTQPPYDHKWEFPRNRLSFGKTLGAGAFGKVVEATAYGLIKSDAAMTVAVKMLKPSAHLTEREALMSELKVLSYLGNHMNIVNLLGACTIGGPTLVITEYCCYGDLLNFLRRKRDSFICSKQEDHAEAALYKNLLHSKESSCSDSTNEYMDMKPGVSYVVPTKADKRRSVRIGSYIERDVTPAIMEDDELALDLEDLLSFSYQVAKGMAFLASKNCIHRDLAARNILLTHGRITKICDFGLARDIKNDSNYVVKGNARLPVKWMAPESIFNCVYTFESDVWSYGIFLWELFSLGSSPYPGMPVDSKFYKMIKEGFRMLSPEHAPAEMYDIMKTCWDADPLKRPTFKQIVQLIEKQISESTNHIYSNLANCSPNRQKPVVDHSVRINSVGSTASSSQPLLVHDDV

[41] = biological target: Calcium/calmodulin-dependent protein kinase type IV (Homo sapiens) (UniProt Q16566); details: Compound concentration 1000.0 nM
[42] = biological target: Serine/threonine-protein kinase 32C (Homo sapiens) (UniProt Q86UX6); details: Compound concentration 1000.0 nM
Serine/threonine-protein kinase 32C (Homo sapiens), sequence (Q86UX6 whole entry): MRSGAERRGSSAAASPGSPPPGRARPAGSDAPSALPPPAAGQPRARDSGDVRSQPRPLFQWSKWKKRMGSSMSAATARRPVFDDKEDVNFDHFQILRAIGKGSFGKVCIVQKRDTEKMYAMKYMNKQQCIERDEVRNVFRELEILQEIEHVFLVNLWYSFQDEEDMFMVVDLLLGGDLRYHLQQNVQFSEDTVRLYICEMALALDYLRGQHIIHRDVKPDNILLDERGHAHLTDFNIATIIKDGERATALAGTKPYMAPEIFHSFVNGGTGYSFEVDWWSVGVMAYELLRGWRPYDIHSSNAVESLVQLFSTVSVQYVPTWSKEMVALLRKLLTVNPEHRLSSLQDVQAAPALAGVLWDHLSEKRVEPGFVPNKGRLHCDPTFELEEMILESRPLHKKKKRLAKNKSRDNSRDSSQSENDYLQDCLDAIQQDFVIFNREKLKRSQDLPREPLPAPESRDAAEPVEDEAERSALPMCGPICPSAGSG

[43] = biological target: Interleukin-1 receptor-associated kinase 4 (Homo sapiens) (UniProt Q9NWZ3); details: Compound concentration 1000.0 nM
[44] = system: Mast/stem cell growth factor receptor Kit (Homo sapiens), P10721 [D816V]; details: Compound concentration 1000.0 nM
Mast/stem cell growth factor receptor Kit (Homo sapiens), P10721 [D816V], sequence (P10721 whole entry D816V): as the sequence (P10721 whole entry L576P) above, with P576L, D816V counted along it

[45] = biological target: 5-hydroxytryptamine receptor 2B (Homo sapiens, UniProt P41595); details: Compound concentration 10.0 uM

Serine/threonine-protein kinase B-raf (Homo sapiens), sequence (P15056 whole entry): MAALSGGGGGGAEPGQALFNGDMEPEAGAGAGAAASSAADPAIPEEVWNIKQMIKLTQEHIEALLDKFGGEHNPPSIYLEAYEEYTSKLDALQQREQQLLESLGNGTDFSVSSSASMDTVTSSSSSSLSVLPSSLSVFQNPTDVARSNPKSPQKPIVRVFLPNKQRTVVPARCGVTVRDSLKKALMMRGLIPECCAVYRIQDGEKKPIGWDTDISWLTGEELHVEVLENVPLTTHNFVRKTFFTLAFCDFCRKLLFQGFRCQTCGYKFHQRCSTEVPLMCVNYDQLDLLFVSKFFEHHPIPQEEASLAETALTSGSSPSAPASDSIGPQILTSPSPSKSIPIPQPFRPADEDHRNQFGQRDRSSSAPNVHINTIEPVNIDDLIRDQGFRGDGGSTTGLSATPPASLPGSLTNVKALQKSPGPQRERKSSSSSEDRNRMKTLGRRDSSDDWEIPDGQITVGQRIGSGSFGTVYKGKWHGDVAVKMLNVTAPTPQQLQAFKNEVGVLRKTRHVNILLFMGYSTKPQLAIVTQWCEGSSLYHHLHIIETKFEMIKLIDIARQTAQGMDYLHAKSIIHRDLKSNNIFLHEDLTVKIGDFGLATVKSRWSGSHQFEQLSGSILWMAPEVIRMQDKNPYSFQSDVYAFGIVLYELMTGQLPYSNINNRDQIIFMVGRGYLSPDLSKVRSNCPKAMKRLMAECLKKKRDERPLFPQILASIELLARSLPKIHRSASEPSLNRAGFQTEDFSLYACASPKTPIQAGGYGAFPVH
Mitotic checkpoint serine/threonine-protein kinase BUB1 (Homo sapiens), sequence (O43683 whole entry, looked up): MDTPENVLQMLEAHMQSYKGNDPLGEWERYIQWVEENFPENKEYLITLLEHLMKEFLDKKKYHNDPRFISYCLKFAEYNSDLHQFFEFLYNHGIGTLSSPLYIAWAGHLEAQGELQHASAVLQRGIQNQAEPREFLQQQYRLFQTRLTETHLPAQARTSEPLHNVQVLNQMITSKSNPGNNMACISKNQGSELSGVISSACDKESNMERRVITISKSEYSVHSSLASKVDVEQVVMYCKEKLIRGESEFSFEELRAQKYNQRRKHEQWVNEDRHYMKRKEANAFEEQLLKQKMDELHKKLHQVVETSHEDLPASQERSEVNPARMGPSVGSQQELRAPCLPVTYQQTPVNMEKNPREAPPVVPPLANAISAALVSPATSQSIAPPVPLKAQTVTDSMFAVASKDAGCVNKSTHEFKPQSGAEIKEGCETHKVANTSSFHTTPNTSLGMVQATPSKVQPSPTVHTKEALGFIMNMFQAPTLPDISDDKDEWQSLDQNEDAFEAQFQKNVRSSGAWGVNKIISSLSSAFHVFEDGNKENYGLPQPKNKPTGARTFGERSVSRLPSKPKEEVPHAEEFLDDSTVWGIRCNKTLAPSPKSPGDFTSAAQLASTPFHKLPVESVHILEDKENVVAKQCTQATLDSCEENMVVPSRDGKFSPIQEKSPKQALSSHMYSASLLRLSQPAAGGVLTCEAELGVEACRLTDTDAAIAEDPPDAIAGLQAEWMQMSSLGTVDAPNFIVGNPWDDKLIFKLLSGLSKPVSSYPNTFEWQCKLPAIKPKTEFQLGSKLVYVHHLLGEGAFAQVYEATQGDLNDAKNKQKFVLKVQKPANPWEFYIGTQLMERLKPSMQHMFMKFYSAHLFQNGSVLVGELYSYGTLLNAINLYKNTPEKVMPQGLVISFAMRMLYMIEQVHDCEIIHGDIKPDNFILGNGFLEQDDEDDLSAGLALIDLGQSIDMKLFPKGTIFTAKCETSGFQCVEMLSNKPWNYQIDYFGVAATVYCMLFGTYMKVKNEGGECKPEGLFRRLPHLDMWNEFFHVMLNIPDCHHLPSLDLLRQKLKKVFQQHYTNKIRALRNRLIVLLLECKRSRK

`CC(C)(O)c1cncc(-c2nc3ccc(F)cc3n2C2CC2)c1` [MSD-CYP11B2] showed a residual activity [1] of 100%, a residual activity [2] of 99% and a residual activity [3] of 100%. It also gave a residual activity [4] of 100%, a residual activity [5] of 100% and a residual activity [6] of 100%. For the same compound, the residual activity [7] was 100%, the residual activity [8] was 100% and the residual activity [9] was 100%. It also gave a residual activity [10] of 100%, a residual activity [11] of 100% and a residual activity [12] of 100%. The inhibition [13] was 16.7%, the residual activity [14] was 100% and the residual activity [15] was 100%. The residual activity [16] was 69%, the residual activity [17] was 100% and the residual activity [18] was 80%. For the same compound, the residual activity [19] was 100%, the inhibition [20] was 1.75% and the residual activity [21] was 100%. The residual activity [22] was 100%, the residual activity [23] was 89% and the residual activity [24] was 100%. It also gave a residual activity [25] of 100%, a residual activity [26] of 100% and a residual activity [27] of 100%. It also gave a residual activity [28] of 100%, a residual activity [29] of 100% and a residual activity [30] of 100%. The residual activity [31] was 100%, the residual activity [32] was 100% and the residual activity [33] was 100%. For the same compound, the residual activity [34] was 84%, the residual activity [35] was 100% and the residual activity [36] was 100%. It also gave a residual activity [37] of 100%, a residual activity [38] of 96% and a residual activity [39] of 100%. It also gave a residual activity [40] of 100%, a residual activity [41] of 100% and a residual activity [42] of 100%. It also gave a residual activity [43] of 100%, a residual activity [44] of 100% and an inhibition [45] of 63.1%.

`FC(F)(F)c1ccc2c(c1)nc(-c1cccnc1)n2C1CC1` [MSD-CYP11B2-Negative-control] was tested, and the residual activity [1] was 100%, the residual activity [2] was 89% and the residual activity [3] was 100%. It also gave a residual activity [4] of 100%, a residual activity [5] of 100% and a residual activity [6] of 100%. For the same compound, the residual activity [7] was 100%, the residual activity [8] was 100% and the residual activity [9] was 100%. For the same compound, the residual activity [10] was 100%, the residual activity [11] was 95% and the residual activity [12] was 100%. It also gave an inhibition [13] of -1.88%, a residual activity [14] of 100% and a residual activity [15] of 100%. It also gave a residual activity [16] of 71%, a residual activity [17] of 100% and a residual activity [18] of 85%. It also gave a residual activity [19] of 100%, an inhibition [20] of 6.72% and a residual activity [21] of 100%. The residual activity [22] was 100%, the residual activity [23] was 100% and the residual activity [24] was 100%. It also gave a residual activity [25] of 100%, a residual activity [26] of 100% and a residual activity [27] of 100%. For the same compound, the residual activity [28] was 100%, the residual activity [29] was 100% and the residual activity [30] was 100%. The residual activity [31] was 100%, the residual activity [32] was 100% and the residual activity [33] was 100%. It also gave a residual activity [34] of 100%, a residual activity [35] of 100% and a residual activity [36] of 100%. For the same compound, the residual activity [37] was 100%, the residual activity [38] was 92% and the residual activity [39] was 100%. For the same compound, the residual activity [40] was 100%, the residual activity [41] was 100% and the residual activity [42] was 100%. For the same compound, the residual activity [43] was 100%, the residual activity [44] was 100% and the inhibition [45] was 79.7%.

— ChEMBL document CHEMBL4507294, “Data for DCP probe MSD-CYP11B2” (2021)
